Read-outs that look alike come from different tables or passages of the source.
Experiments:
[1] = system: L. donovani intracellular amastigotes; assay: L. donovani intracellular amastigote assay in PMA-differentiated THP-1 macrophages (Giemsa counting); type: cell-based, Leishmania donovani; conditions: for IC50: L. donovani in THP-1 macrophages, 120 h incubation, mean ± SD, n = 2 biological replicates; for Selectivity Index: CC50 THP-1/IC50 intracellular amastigotes
Method: (§1) Leishmania donovani axenic cultures (strain MHOM/ET/67/HU3) were maintained in M199 medium (pH 7.4) supplemented with 10% heat-inactivated fetal calf serum (FCS) and grown at 28°C [22]. Human leukemia cells (THP-1 cell line) were maintained in RPMI-1640 (FCS 10%) and grown at 37°C and 5% CO2. Stock solutions of compounds 1–4 were prepared in 100% DMSO at 10 mM and tested in 2-fold serial dilutions (10 concentrations) in 96-well flat-bottom microtiter plates.
In the intracellular amastigote assay, THP-1 cells were seeded at 2 × 10^4/well (RPMI-1640, 100 μL) with phorbol 12-myristate 13-acetate (PMA) at 20 ng/mL for differentiation into macrophages. After incubation for 72 hours (5% CO2, 37°C), medium was aspirated and late-stage promastigotes were added (2 × 10^5/well, 100 μL). After 24 hours of incubation, medium was aspirated to clear extracellular parasites, compounds were added in serial dilutions (100 μL) and the plates were incubated for 120 hours. All plates included negative controls (100% parasite growth) and miltefosine as a positive control. Following incubation, medium was removed and the cells were fixed in methanol and stained with Giemsa. The average number of intracellular amastigotes per THP-1 cell was determined using an inverted microscope and a cell counter. Growth inhibition was expressed as a percentage of the average number of amastigotes per macrophage in the negative control wells. IC50 values were determined as described above for the promastigote assay.

[2] = system: L. donovani promastigotes; assay: L. donovani promastigote assay (Alamar Blue); type: cell-based, Leishmania donovani; conditions: 72 h incubation at 28°C, mean ± SD, n = 2 biological replicates
Method: as §1
For the promastigote assay, L. donovani cells from axenic cultures in logarithmic growth were seeded at 1 x 10^5/well (M199, 80 μL) and compounds were added in serial dilutions (20 μL). All plates included negative controls (100% parasite growth) and miltefosine as a positive control. After 72 hours of incubation at 28°C, 10 μL of Alamar Blue (12.5 mg resazurin/100 mL distilled water) was added to each well and then the plates were incubated for 3 hours. This indicator of cell viability permeates into viable parasites, where it is reduced by NADPH and NADH enzymes to the highly fluorescent compound resorufin [24]. Following incubation, the plates were read with a microplate fluorometer under an excitation wave length of 536 nm and an emission wave length of 588 nm. […] If the test compound is active against L. donovani, the number of viable parasites is reduced, thus resulting a decrease in fluorescence. Growth inhibition was expressed as a percentage of the fluorescence of the negative control wells. IC50 values were determined using SigmaPlot. Dose-response curves were fitted using log (inhibitor concentration) vs. normalized response (between 0% and 100%) with variable slope, and IC50 values were automatically calculated.

Escovopsis sp. = assay: Antagonist bioassay of compounds and fractions against Escovopsis on ISP-2 agar; type: cell-based; conditions: 100 μg compound, 21 days
Method: (§2) Each bacterium-fungus and compound-fungal challenge was replicated two times on ISP-2 agar. Bacteria strains were initially screened against Escovopsis sp. ICBG1251. Bacteria were placed in the center of ISP-2 agar Petri dishes and grown alone during 7 days; fungal strains were then point-inoculated near the edge of the culture (microbial strains distant from each other around 3 cm). Two microliters of compounds (100 μg) were placed in the center of Petri dishes and fungal strains were then point-inoculated near the edge of the plate. The positive control used was the miconazole. Challenges were monitored each 7 days and inhibition zone was measure after 21 days. Four different fungal strains were used for testing the pure compounds: Escovopsis sp. ICBG711 (from Trachymyrmex colony), Escovopsis sp. ICBG740 (from Acromyrmex colony), Escovopsis sp. ICBG1251 (from Atta colony) and Trichoderma sp. ICBG1100 (from attine colony).

Trichoderma sp. ICBG1100 = assay: Antagonist bioassay of compounds against Trichoderma on ISP-2 agar; type: cell-based; conditions: 100 μg compound, 21 days of growth at 28°C
Method: as §2

[3] = Selectivity assay on THP-1 macrophages (Alamar Blue); type: cell-based; conditions: human
Method: Leishmania donovani axenic cultures (strain MHOM/ET/67/HU3) were maintained in M199 medium (pH 7.4) supplemented with 10% heat-inactivated fetal calf serum (FCS) and grown at 28°C [22].
After incubation for 72 hours (5% CO2, 37°C), medium was aspirated, compounds were added in serial dilutions (100 μL) and the plates were incubated for 120 h. All plates included negative controls and doxorubicin as a positive control. Following incubation, 10 μL of Alamar Blue was added to each well and then the plates were incubated for 3 hours. […] Growth inhibition was expressed as a percentage of the fluorescence of the negative control wells. IC50 values were determined as described above for the promastigote and amastigote assays.

[4] = THP-1 macrophages, 120 h incubation, mean ± SD, n = 2 biological replicates, read-out: CC50 THP-1

| SMILES | IC50 ([1]; Leishmania donovani) [µM] | IC50 ([2]; Leishmania donovani) [µM] | CC50 at 120 h [3, 4] [µM] | Selectivity Index [1] | also measured |
| --- | --- | --- | --- | --- | --- |
| C/C=C(\C)[C@H](O)[C@H](C)/C=C(C)/C=C/C/C(C)=C/Cc1nc(OC)cc(O)c1C [Compound 1, Mer-A2026B] |  |  |  |  | IC50 [1]: 49.9 ± 7.01 µM; IC50 [2]: 35.9 ± 1.83 µM; Antagonist activity against four different Escovopsis strains compared to compounds 2–4 (Escovopsis sp.): higher antagonist activity; Activity against Trichoderma sp. (Trichoderma sp. ICBG1100): active |
| C/C=C(\C)[C@H](O)[C@H](C)/C=C(C)/C=C/C/C(C)=C/Cc1nc(OC)c(OC)c(O)c1C [Compound 2, piericidin-A1] | > 64 | 38.4 ± 4.63 | > 64 |  |  |
| CO[C@@H]1C[C@@H](C[C@H]2CC[C@H](C)[C@H]([C@@H](C)C(=O)O)O2)O[C@]2(O[C@](C)([C@H]3CC[C@@](C)([C@@H]4O[C@@H]([C@H]5O[C@@](O)(CO)[C@H](C)C[C@@H]5C)C[C@@H]4C)O3)C[C@H]2C)[C@@H]1C [Compound 3, nigericin] | 0.129 ± 0.008 | 0.284 ± 0.072 |  | 88.91 | CC50 at 120 h [3]: 11.5 ± 0.68 µM |
| CC[C@@H]1C[C@H]2CC[C@H](O2)[C@H](C)C(=O)O[C@@H](C)C[C@@H]2CC[C@@H](O2)[C@@H](C)C(=O)O[C@H](CC)C[C@H]2CC[C@H](O2)[C@H](C)C(=O)O[C@@H](C)C[C@@H]2CC[C@@H](O2)[C@@H](C)C(=O)O1 [Compound 4, dinactin] | 0.018 ± 0.003 | 0.032 ± 0.005 | 11.8 ± 1.57 | 656.11 |  |
| COc1cccc2c1C(=O)c1c(O)c3c(c(O)c1C2=O)C[C@@](O)(C(=O)CO)C[C@@H]3O[C@H]1C[C@H](N)[C@H](O)[C@H](C)O1 [Doxorubicin, reference compound] |  |  |  |  | CC50 at 120 h ([3]; THP-1 cells differentiated into macrophages with PMA, THP-1 macrophages, 120 h incubation, mean ± SD, n = 2 biological replicates, read-out: CC50 THP-1): 0.571 ± 0.068 µM |
| CCCCCCCCCCCCCCCCOP(=O)([O-])OCC[N+](C)(C)C [Miltefosine, reference compound] | 5.8 ± 0.59 | 4.74 ± 0.25 |  |  |  |

Source: paper PMC6695191 (PLoS Neglected Tropical Diseases, 2019)
